Laboratory results taken from patent publication US20230129651A1, “HAIRPIN STRUCTURE NUCLEIC ACID MOLECULES CAPABLE OF MODULATING TARGET GENE EXPRESSION AND USES THEREOF” (KOREA ADVANCED INSTITUTE OF SCIENCE AND TECHNOLOGY, priority 2021, published 2023).
In the oligonucleotide strings, read from the 5' end, every base follows the letter of its sugar. An asterisk marks phosphorothioate; unmarked linkages are phosphodiester. Other units and linkages are bracketed, terminal groups are in braces. A string of capitals states the bases alone. d = 2'-deoxy (DNA)

Key:
cells = assay: Cytotoxicity assay of chemically modified miRNA triggers (CCK-8); format: cell-based; settings: after transfection
Protocol: The miRNA triggers were assayed for cytotoxicity and apoptosis induction, using the CCK-8 (Cell Counting Kit-8) (Dojindo, Kumamoto, Japan) according to the manufacturer's instruction. Cells were incubated in 96-well plates (5×10^3 cells/well) at 37° C. for 24 hours under a 5% CO2 atmosphere, followed by transfection. Three days after transfection, the medium was removed. A 10-fold dilution of CCK-8 solution in DMEM was added to the cells which were then incubated at 37° C. for 2 hours. After incubation, absorbance was read at 450 nm on Tecan Infinite M200 pro microplate reader (Mnnedorf, Switzerland).
In addition, FPS HP and 2′-OMe HP, which were the most resistant to degradation in biological samples, were analyzed for cytotoxicity. In this regard, the HP in which the entire nucleotides of miRNA trigger (LP) were modified with PS (expressed as PS in Table 6 and FIG. 6), the linear probe in which the entire nucleotides of miRNA trigger (LP) were modified with 2′-O-Me (expressed as 2′O-me in Table 6 and FIG. 6), the control DNA LP (expressed as DNA in Table 6 and FIG. 6), or siRNA was transfected into cells which were then measured for cell viability using the method of Reference Example 9. The result is depicted in FIG. 6. […]

GFP mRNA = assay: GFP fluorescence intensity in GFP-expressing Hela-141 cells; format: cell-based; settings: trigger 30 to 60 nM, siGFP compared to siLuc
Source text: A GFP fluorescent protein-expressing plasmid (used in Chen L L, DeCerbo J N, Carmichael G G. 2008. Alu element-mediated gene silencing. EMBO J 27: 1694-1705) was transfected into Hela-141 cells to prepare GFP-expressing Hela-141 cells. As stated in Reference Example 1, a linear miRNA trigger (LP; GFP_141_141), which can target GFP mRNA (=complementarily bind to GFP mRNA to regulate the expression of GFP) and complementarily bind to miR-141, and siRNAs which target GFP and Luc (Luciferase), respectively, were synthesized in Bioneer Inc. Sequences of the LP and siRNAs and types and positions of chemical modifications in each sequence are listed in Table 8, below.
Above all, siLuc and siGFP were transfected into the GFP-expressing Hela-141 cells which were then measured for fluorescence intensity on an ELISA reader. […] In addition, the linear miRNA trigger (GFP(1)_141_141) was transfected into the GFP-expressing Hela-141 cells which were then measured for fluorescence intensity. The result is depicted in FIG. 8. For the transfection, the GFP plasmid and GFP_141_141 were used at a concentration of 0.5 to 1 μg/ml and 30 to 60 nM, respectively.

Question: How did the “cell viability versus non-transfected negative control (in words)” value (cells) turn out when “2′-O-Me: linear probe with entire nucleotides modified with 2′-O-Me, Table 6; SEQ ID NO 38 (UCGAAGUACUCAGCGUAAGUUCGAAGUACUCAGCGUAAGUUCGAAGUACUCAGCGUAAGU; all 2'-O-methyl, backbone not given here)” was run?
Answer: The value was “not significantly different in viability from the negative control”.

Question: “PS: miRNA trigger of random sequence with entire nucleotides PS-modified, Table 6; SEQ ID NO 37 (dT*dC*dG*dA*dA*dG*dT*dA*dC*dT*dC*dA*dG*dC*dG*dT*dA*dA*dG*dT*dT*dC*dG*dA*dA*dG*dT*dA*dC*dT*dC*dA*dG*dC*dG*dT*dA*dA*dG*dT*dT*dC*dG*dA*dA*dG*dT*dA*dC*dT*dC*dA*dG*dC*dG*dT*dA*dA*dG*dT)” was tested. Which cell viability (cells) did it give?
Answer: Its cell viability is “less than 40%”.

Question: For “siGFP: siRNA which targets GFP; SEQ ID NO 44 (UUAUGUUUCAGGUUCAGGG; unmodified RNA) [reference compound]”, which GFP fluorescence intensity (GFP mRNA) is on record?
Answer: Its GFP fluorescence intensity is “significantly reduced fluorescence intensity”.

B1: GFP(1)_141_141: linear miRNA trigger targeting GFP mRNA and binding miR-141; SEQ ID NO 41 (nucleic acid)
chain: CCAUCUUUACCUCACAGUGUUACCAUCUUUACCUCACAGUGUUAUUAUGUUUCAGGUUCAGGGGGA
modifications: all 2'-O-methyl, backbone not given here
Question: With B1 as the molecule, how does the GFP fluorescence intensity (GFP mRNA) read?
Answer: Its GFP fluorescence intensity is “reduced GFP fluorescence intensity in a dose-dependent manner”.
